This note sets out measurements from patent publication US20250215013A1, “SUBSTITUTED TRICYCLIC COMPOUNDS AS PARP INHIBITORS AND THE USE THEREOF” (IMPACT THERAPEUTICS (SHANGHAI), INC., priority 2022, published 2025).

This assay relates to MDA-MB-436 cells. As to the kind of experiment: Growth inhibition assay against BRCA mutant human breast cancer MDA-MB-436 cell line (CCK-8). It is filed as cell-based. The conditions noted are these: Homo sapiens, MDA-MB-436, […], proliferation of MDA-MB-436 cells, 7 days.
In general, IC50 refers to the concentration needed to halve the response being measured. A high value points to weaker potency. In turn, `CNC(=O)c1ccc(N[C@@H]2CCN(Cc3ccc4c([nH]c(=O)c5occc54)c3F)C2)cn1` [Example 146, (R)-7-((3-((6-(methylcarbamoyl)pyridin-3-yl)amino)pyrrolidin-1-yl)methyl)-6-fluorofuro[2,3-c]quinolin-4(5H)-one] returned a concentration for half-maximal inhibition (IC50) of more than 100 nM.
`CNC(=O)c1ccc(N2CCN(Cc3ccc4c([nH]c(=O)c5occc54)c3F)CC2)cn1` [Example 148, 6-fluoro-7-((4-(6-(methylcarbamoyl)pyridin-3-yl)piperazin-1-yl)methyl)furo[2,3-c]quinolin-4(5H)-one] yielded an IC50 of 29.2 nM.
`CNC(=O)c1ccc(N2CCN(Cc3ccc4c([nH]c(=O)c5cocc54)c3F)CC2)cn1` [Example 149, 6-fluoro-7-((4-(6-(methylcarbamoyl)pyridin-3-yl)piperazin-1-yl)methyl)furo[3,4-c]quinolin-4(5H)-one] yielded an IC50 of 74.5 nM.
The value for `CNC(=O)c1ccc(N2CCN(Cc3ccc4c([nH]c(=O)c5ccoc54)c3F)CC2)cn1` [Example 150, 6-fluoro-7-((4-(6-(methylcarbamoyl)pyridin-3-yl)piperazin-1-yl)methyl)furo[3,2-c]quinolin-4(5H)-one] was 11.5 nM; that for `CNC(=O)c1ccc(N2CCN(Cc3ccc4c([nH]c(=O)c5c(C)cnn54)c3F)CC2)cn1` [Example 153, 6-fluoro-3-methyl-7-((4-(6-(methylcarbamoyl)pyridin-3-yl)piperazin-1-yl)methyl)pyrazolo[1,5-a]quinoxalin-4(5H)-one] was 23.6 nM; that for `CNC(=O)c1ccc(N2CCN(Cc3ccc4c([nH]c(=O)c5c(C)cnn54)c3F)CC2)c(F)c1` [Example 154, 6-fluoro-7-((4-(2-fluoro-4-(methylcarbamoyl)phenyl)piperazin-1-yl)methyl)-3-methylpyrazolo[1,5-a]quinoxalin-4(5H)-one] was 95.9 nM.
On to `CNC(=O)c1ccc(N2CCN(Cc3ccc4c([nH]c(=O)c5c(C)cnn54)c3F)CC2)c(Cl)c1` [Example 155, 6-fluoro-7-((4-(2-chloro-4-(methylcarbamoyl)phenyl)piperazin-1-yl)methyl)-3-methylpyrazolo[1,5-a]quinoxalin-4(5H)-one], for which 66.5 nM corresponded to half-maximal inhibition (IC50).
The value for `Cc1cnn2c1c(=O)[nH]c1c(F)c(CN3CCN(c4ccc(C(=O)N[C@@H]5CCOC5)nc4F)CC3)ccc12` [Example 156, (R)-6-fluoro-7-((4-(2-fluoro-6-((tetrahydrofuran-3-yl)carbamoyl)pyridin-3-yl)piperazin-1-yl)methyl)-3-methylpyrazolo[1,5-a]quinoxalin-4(5H)-one] was 6.08 nM.
`CNc1nccc2cc(N3CCN(Cc4ccc5c([nH]c(=O)c6c(C)cnn65)c4F)CC3)cnc12` [Example 157, 6-fluoro-3-methyl-7-((4-(8-(methylamino)-1,7-naphthyridin-3-yl)piperazin-1-yl)methyl)pyrazolo[1,5-a]quinoxalin-4(5H)-one] returned an IC50 of 42.3 nM.
The value for `Cc1cnn2c1c(=O)[nH]c1c(F)c(CN3CCN(c4ccc(-c5ncc[nH]5)nc4)CC3)ccc12` [Example 158, 7-((4-(6-(1H-imidazol-2-yl)pyridin-3-yl)piperazin-1-yl)methyl)-6-fluoro-3-methylpyrazolo[1,5-a]quinoxalin-4(5H)-one] was 98.2 nM.
Take `CNC(=O)c1ccc(N2CCN(Cc3ccc4c([nH]c(=O)c5c(C)cnn54)c3F)CC2)c(C2CC2)n1` [Example 160, 7-((4-(2-cyclopropyl-6-(methylcarbamoyl)pyridin-3-yl)piperazin-1-yl)methyl)-6-fluoro-3-methylpyrazolo[1,5-a]quinoxalin-4(5H)-one]: the IC50 was more than 100 nM.
In turn, `CNC(=O)c1ccc(N2CCN(Cc3ccc4c([nH]c(=O)c5c(C)cnn54)c3F)CC2)cc1F` [Example 161, 6-fluoro-7-((4-(3-fluoro-4-(methylcarbamoyl)phenyl)piperazin-1-yl)methyl)-3-methylpyrazolo[1,5-a]quinoxalin-4(5H)-one] had an IC50 of more than 100 nM.
`CNC(=O)c1ccc(N2CCN(Cc3ccc4c([nH]c(=O)c5c(C)cnn54)c3F)CC2)c(C)c1` [Example 162, 6-fluoro-7-((4-(2-methyl-4-(methylcarbamoyl)phenyl)piperazin-1-yl)methyl)-3-methylpyrazolo[1,5-a]quinoxalin-4(5H)-one] showed an IC50 of 20.1 nM.
Take `Cc1cnn2c1c(=O)[nH]c1c(F)c(CN3CCN(c4ccc(C#N)nc4F)CC3)ccc12` [Example 164, 6-fluoro-7-((4-(2-fluoro-6-cyanopyridin-3-yl)piperazin-1-yl)methyl)-3-methylpyrazolo[1,5-a]quinoxalin-4(5H)-one]: the IC50 stood at 71.3 nM.
The value for `CNC(=O)c1ccc(N2CCN(Cc3cc4[nH]c(=O)c5c(C)cnn5c4cc3F)CC2)c(C)n1` [Example 169, 8-fluoro-7-((4-(2-methyl-6-(methylcarbamoyl)pyridin-3-yl)piperazin-1-yl)methyl)-3-methylpyrazolo[1,5-a]quinoxalin-4(5H)-one] was 20.3 nM; that for `CNC(=O)c1ccc(N2CCN(Cc3cc4[nH]c(=O)c5c(C)cnn5c4cc3F)CC2)c(Cl)n1` [Example 170, 8-fluoro-7-((4-(2-chloro-6-(methylcarbamoyl)pyridin-3-yl)piperazin-1-yl)methyl)-3-methylpyrazolo[1,5-a]quinoxalin-4(5H)-one] was 18.5 nM; that for `CNC(=O)c1ccc(N2CCN(Cc3ccc4c([nH]c(=O)c5c(C)cnn54)c3C)CC2)c(F)n1` [Example 171, 7-((4-(2-fluoro-6-(methylcarbamoyl)pyridin-3-yl)piperazin-1-yl)methyl)-3,6-dimethylpyrazolo[1,5-a]quinoxalin-4(5H)-one] was 14.4 nM.
Take `CNC(=O)c1ccc(N2CCN(Cc3ccc4c([nH]c(=O)c5c(C)cnn54)c3C)CC2)c(C)n1` [Example 172, 7-((4-(2-methyl-6-(methylcarbamoyl)pyridin-3-yl)piperazin-1-yl)methyl)-3,6-dimethylpyrazolo[1,5-a]quinoxalin-4(5H)-one]: the IC50 was 42.5 nM.
The value for `CNC(=O)c1ccc(N2CCN(Cc3ccc4c([nH]c(=O)c5c(C)cnn54)c3C)CC2)c(Cl)n1` [Example 173, 7-((4-(2-chloro-6-(methylcarbamoyl)pyridin-3-yl)piperazin-1-yl)methyl)-3,6-dimethylpyrazolo[1,5-a]quinoxalin-4(5H)-one] was 23.2 nM.
The value for `CNC(=O)c1ccc(N2CCN(Cc3ccc4c([nH]c(=O)c5c(C)cnn54)c3Cl)CC2)c(F)n1` [Example 174, 6-chloro-7-((4-(2-fluoro-6-(methylcarbamoyl)pyridin-3-yl)piperazin-1-yl)methyl)-3-methylpyrazolo[1,5-a]quinoxalin-4(5H)-one] was 47 nM; that for `CNC(=O)c1ccc(N2CCN(Cc3ccc4c([nH]c(=O)c5c(C)cnn54)c3Cl)CC2)c(C)n1` [Example 175, 6-chloro-7-((4-(2-methyl-6-(methylcarbamoyl)pyridin-3-yl)piperazin-1-yl)methyl)-3-methylpyrazolo[1,5-a]quinoxalin-4(5H)-one] was more than 100 nM; that for `CNC(=O)c1ccc(N2CCN(Cc3ccc4c([nH]c(=O)c5c(C)cnn54)c3Cl)CC2)c(Cl)n1` [Example 176, 6-chloro-7-((4-(2-chloro-6-(methylcarbamoyl)pyridin-3-yl)piperazin-1-yl)methyl)-3-methylpyrazolo[1,5-a]quinoxalin-4(5H)-one] was more than 100 nM.
